Reference: paper PMC10054465, “Design, Synthesis, and Antiviral Activities of New Benzotriazole-Based Derivatives” (Pharmaceuticals, 2023)
“Also recorded” adds a separate entry of the source. Like-named read-outs stand apart in the source and are kept apart here.

Tests used:
[1] = tested on: CVB5 virions; assay: Virucidal activity assay; type: cell-based, human enterovirus B (coxsackievirus B5); conditions: 20 µM, 4 °C or 37 °C
[2] = tested on: CVB5; assay: Time of addition assay; type: cell-based, human enterovirus B (coxsackievirus B5); conditions: 20 µM
[3] = tested on: Reo-1; assay: microbe, parasite or virus in culture; type: cell-based, Reovirus type-1; conditions: Reovirus sp., BHK-21, read-out: Reo-1 EC50
[4] = tested on: VSV; assay: microbe, parasite or virus in culture; type: cell-based; conditions: Vesicular stomatitis virus, Vero 76, read-out: VSV EC50
[5] = Cytotoxicity in mock-infected MDBK cells (MTT); conditions: cattle (Bos taurus), mock-infected
[6] = tested on: CVB5; assay: microbe, parasite or virus in culture; type: cell-based, human enterovirus B (coxsackievirus B5); conditions: Enterovirus B, CVB5, Vero 76, read-out: CVB5 EC50
[7] = Cytotoxicity in mock-infected BHK-21 monolayers (MTT); conditions: Syrian hamster (Mesocricetus auratus), BHK-21 cell monolayers, mock-infected
[8] = tested on: VV; assay: microbe, parasite or virus in culture; type: cell-based; conditions: Orthopoxvirus vaccinia, Vero 76, read-out: VV EC50
[9] = tested on: CVB5; assay: Cell pre-treatment assay (viral yield by plaque assay); type: cell-based, human enterovirus B (coxsackievirus B5); conditions: Vero-76 pre-treated 2 h with 20 µM, then CVB5; not treated control 3 × 10^5 PFU/mL
[10] = tested on: Vero-76 cells
[11] = tested on: YFV; assay: microbe, parasite or virus in culture; type: cell-based; conditions: Yellow fever virus, BHK-21, read-out: YFV EC50
[12] = tested on: RSV; assay: microbe, parasite or virus in culture; type: cell-based; conditions: human respiratory syncytial virus, Vero 76, read-out: RSV EC50
[13] = tested on: BVDV; assay: microbe, parasite or virus in culture; type: cell-based; conditions: Bovine viral diarrhea virus isolates and strains, MDBK, read-out: BVDV EC50
[14] = Cytotoxicity in mock-infected Vero-76 monolayers; conditions: African green monkey (Cercopithecus aethiops)
[15] = tested on: HSV-1; assay: microbe, parasite or virus in culture; type: cell-based, human herpesvirus 1; conditions: Human alphaherpesvirus 1, Vero 76, read-out: HSV-1 EC50
[16] = tested on: Caco-2 cell monolayers
[17] = tested on: Sb-1; assay: microbe, parasite or virus in culture; type: cell-based, human enterovirus C (poliovirus type-1); conditions: Enterovirus C, Vero 76, read-out: Sb-1 EC50
[18] = tested on: CVB; conditions: cited from earlier work
[19] = African green monkey (Cercopithecus aethiops)
[20] = Vero-76 cell monolayers, mock-infected

| Compound | EC50 [3] | EC50 [4] | CC50 [5] | EC50 [6] | CC50 [7] | EC50 [8] | EC50 [11] | EC50 [12] | EC50 [13] | CC50 [14, 20] | CC50 ([14]; Vero-76 cells) | EC50 [15] | TEER values versus control (in words) [16] | EC50 [17] | other results |
| --- | --- | --- | --- | --- | --- | --- | --- | --- | --- | --- | --- | --- | --- | --- | --- |
| CC(C)(C)C(=O)Nc1ccc(Cn2nnc3c(F)cccc32)cc1 [18e, N-(4-((4-fluoro-1H-benzo[d][1,2,3]triazol-1-yl)methyl)phenyl)pivalamide] | > 100 µM | > 100 µM | > 100 µM | 12.4 ± 0.6 µM | > 100 µM | > 100 µM | > 100 µM | > 9 µM | > 100 µM | > 100 µM | 9 µM | 52 ± 9.2 µM | did not significantly differ from control values | > 100 µM | virucidal effect on CVB5 titer (in words) [1]: no virucidal activity; also recorded: no difference between the titers; antiviral effect, compound added during the infection period (in words) ([2]; Vero-76, CVB5 m.o.i. 1): antiviral effect was kept; titer reduction, compound added during subsequent steps of the replication cycle (in words) ([2]; Vero-76, CVB5 m.o.i. 1, post infection): No titer reduction; viral load after cell pre-treatment [9]: 7× 10^4 PFU/mL; % Late apoptotic cells [10]: 8.3 ± 0.34%; % Live cells [10]: 72.87 ± 1.21%; % Necrotic cells [10]: 12.44 ± 2.35%; % Late apoptotic cells [10, 19]: 1.03 ± 0.34%; % Live cells [10, 19]: 94.45 ± 2.55%; % Necrotic cells [10, 19]: 4.12 ± 2.3% |
| O=C(Nc1cccc(Cn2nnc3cc(Cl)c(Cl)cc32)c1)c1ccc(Cl)cc1 [43a, N-(3-((5,6-dichloro-1H-benzo[d][1,2,3]triazol-1-yl)methyl)phenyl)-4-chlorobenzamide] | > 100 µM | > 100 µM | > 100 µM | 9 ± 1.6 µM | > 100 µM | > 100 µM | > 100 µM | > 9.2 µM | > 100 µM | > 100 µM | 9.2 µM | > 100 µM | did not significantly differ from control values | > 100 µM |  |
| CCCNC(=O)Nc1ccc(Cn2nnc3cc(C)c(C)cc32)cc1 [99b] | > 100 µM | > 100 µM | > 100 µM | 16 µM | > 100 µM | > 100 µM | > 100 µM | > 100 µM | > 100 µM | > 100 µM |  | > 100 µM |  | > 100 µM | melting point: 190 to 192 °C |
| O=C(CCC(=O)Nc1ccc(-n2nnc3cc(Cl)c(Cl)cc32)cc1)Nc1ccc(-n2nnc3cc(Cl)c(Cl)cc32)cc1 [A, N1,N4-bis(4-(5,6-dichloro-1H-benzo[d][1,2,3]triazol-1-yl)phenyl)succinamide] |  |  |  |  |  |  |  |  |  |  |  |  |  |  | activity against CVB (in words) [18]: not active |
| O=C(CCC(=O)Nc1ccc(Cn2nnc3cc(Cl)c(Cl)cc32)cc1)Nc1ccc(Cn2nnc3cc(Cl)c(Cl)cc32)cc1 [B, N1,N4-bis(4-((5,6-dichloro-1H-benzo[d][1,2,3]triazol-1-yl)methyl)phenyl)succinamide] |  |  |  |  |  |  |  |  |  |  |  |  |  |  | EC50 [18]: 23 µM |
